In ChEMBL document CHEMBL1124500, “New cyclic peptides with cytotoxic activity from the ascidian Lissoclinum patella” (J Med Chem, 1989):
Values after ≈ are worked out from the molar mass of the structure shown.

Assays:
Format in all cases: functional, cell-based
L1210 [1] = assay: Concentration required to cause 50% inhibition against murine leukemia L1210 cell line; conditions: Mus musculus
L1210 [2] = assay: Concentration required to cause 50% inhibition against murine leukemia L1210 cell line; 2-4 ug/mL; conditions: Mus musculus
T-24 [3] = assay: Cytotoxicity of compound was evaluated by incorporation of [methyl-3H]thymidine into T24, a bladder carcinoma cell line, continuous exposure; conditions: Homo sapiens
MRC5CV1 [4] = assay: Cytotoxicity of compound was evaluated by incorporation of [methyl-3H]thymidine into MRC5CV1, a control fibroblast cell line, continuous exposure; conditions: Homo sapiens
T-24 [5] = assay: Cytotoxicity of compound was evaluated by incorporation of [methyl-3H]thymidine into T24, a bladder carcinoma cell line, for 1 hr exposure; conditions: Homo sapiens, T-24, 1 h
CCRF-CEM = assay: Concentration required to cause 50% inhibition against human CEM cell lines
MRC5CV1 [6] = assay: Cytotoxicity of compound was evaluated by incorporation of [methyl-3H]thymidine into MRC5CV1, a control fibroblast cell line, for 1 hr exposure; conditions: Homo sapiens, MRC5CV1, 1 h

Structure (SMILES)	IC50 (L1210 [1]) [µg/mL]	IC50 (L1210 [2]) [µg/mL]	other results
CC(C)[C@@H]1NC(=O)[C@H]2N=C(O[C@@H]2C)[C@@H]2CCCN2C(=O)[C@H](Cc2ccccc2)NC(=O)c2csc(n2)[C@H](Cc2ccccc2)NC(=O)[C@H]2CSC1=N2	0.8 (≈ 1.08 µM)		
CC[C@@H](C)[C@H]1NC(=O)[C@H]2N=C(O[C@@H]2C)[C@@H]2CCCN2C(=O)[C@H](Cc2ccccc2)NC(=O)c2csc(n2)[C@@H](C)NC(=O)C2CSC1=N2 [LISSOCLINAMIDE 2]	> 10		
CC[C@@H](C)[C@H]1NC(=O)[C@H]2N=C(O[C@@H]2C)[C@@H]2CCCN2C(=O)[C@H](Cc2ccccc2)NC(=O)c2csc(n2)[C@H](C)NC(=O)C2CSC1=N2 [LISSOCLINAMIDE 3]	> 10		
CC[C@H](C)[C@@H]1NC(=O)c2csc(n2)[C@@H](C)NC(=O)[C@H]2N=C(O[C@@H]2C)[C@H](CC(C)C)NC(=O)c2csc(n2)[C@@H](Cc2ccccc2)NC(=O)[C@H]2N=C1O[C@@H]2C [PATELLAMIDE B]		2 (≈ 2.57 µM)	
CC(C)C[C@H]1NC(=O)[C@H]2N=C(O[C@@H]2C)[C@H]2CSSC[C@@H](NC(=O)c3csc1n3)C1=N[C@H](C(=O)N[C@H](CC(C)C)c3nc(cs3)C(=O)N2)[C@@H](C)O1 [ULITHIACYCLAMIDE]	0.35 (≈ 0.459 µM)		IC50 (T-24 [3]): 0.1 µg/mL (≈ 0.131 µM); IC50 (MRC5CV1 [4]): 0.04 µg/mL (≈ 0.0524 µM); IC50 (T-24 [5]): 0.15 µg/mL (≈ 0.197 µM); IC50 (CCRF-CEM): 0.01 µg/mL (≈ 0.0131 µM); IC50 (MRC5CV1 [6]): 0.22 µg/mL (≈ 0.288 µM)
CC[C@H](C)[C@@H]1NC(=O)c2csc(n2)[C@@H](C(C)C)NC(=O)[C@H]2N=C(O[C@@H]2C)[C@H]([C@@H](C)CC)NC(=O)c2csc(n2)[C@@H](C(C)C)NC(=O)[C@@H]2COC1=N2 [PATELLAMIDE A]		2 (≈ 2.69 µM)	
CC[C@H](C)[C@@H]1NC(=O)c2csc(n2)[C@@H](C)NC(=O)[C@H]2N=C(O[C@@H]2C)[C@H](C(C)C)NC(=O)c2csc(n2)[C@@H](Cc2ccccc2)NC(=O)[C@H]2N=C1O[C@@H]2C [PATELLAMIDE C]		2 (≈ 2.62 µM)	
CC[C@@H](C)[C@H]1NC(=O)c2csc(n2)[C@H](C(C)C)NC(=O)[C@H]2N=C(O[C@@H]2C)[C@@H]2CCCN2C(=O)[C@H](Cc2ccccc2)NC(=O)c2csc1n2 [LISSOCLINAMIDE 1]	> 10		
